Where a SMILES comes first, the peptide text is derived from it. The star is where a group is joined. αGalNAc = CC(=O)N[C@@H]1[C@@H](O)[C@@H](O)[C@@H](CO)O[C@@H]1*
Experiments:
GalNAc-T2 [1] = target: T1, GalNAc-T2 (Homo sapiens, UniProt Q10471); assay: X-ray crystal structures of GalNAc-T2 complexes; assay type: binding; details: co-crystallization with UDP and Mn+2; flexible loop conformation
T1 construct: made in house
Procedure: In all cases, crystals were grown by hanging drop vapour diffusion at 18 °C. […] The protein solution consisting of 3.5 mg ml^−1 of GalNAcT-2, 5 mM UDP, 5 mM MnCl2 and 6 mM MUC5AC-13 in the same buffer described above was mixed with the precipitant solution containing 1.6 M ammonium sulfate, 100 mM sodium chloride and 100 mM HEPES (pH 7). The crystals were cryoprotected in saturated lithium sulfate and frozen in a nitrogen gas stream cooled to 100 K.
All data were processed and scaled using the XDS package[34] and CCP4 software. The crystal structures were solved by molecular replacement with Phaser[35] and using the PDB entry 4D0T as the template. Initial phases were further improved by cycles of manual model building in Coot[36] and refinement with REFMAC5 (ref. [37]). The AUs of the tetragonal crystals contain 1 molecule of GalNAc-T2 (Fig. 1). Coordinates and structure factors have been deposited in the Worldwide Protein Data Bank (wwPDB, and see Table 1 for the pdb codes).

GalNAc-T2 [2] = target: T1, GalNAc-T2; assay: SAXS with Ensemble Optimization Method: GalNAc-T2 conformations/oligomers with ligands; details: GalNAc-T2 5 mg/ml, 25 mM TRIS pH 7.5, 10 mM MnCl2, 10 °C; for Dmax: maximum intramolecular distance, GNOM; on all read-outs here: values in Å
Procedure: SAXS measurements were performed at the European Molecular Biology Laboratory on the storage ring PETRA-III (DESY-Hamburg) on the P12 beamline equipped with a robotic sample changer and a PILATUS-2M. The analysis of the SAXS data was performed by using the EOM[31]. Additional details are in Supplementary Methods. […]
Small-angle X-ray scattering (SAXS) and data analysis
All experiments were performed in a buffer consisting of 25 mM TRIS pH 7.5, 10 mM MnCl2. The first set of experiments contained three different protein concentrations: 10 mg/ml (180 µM), 5 mg/ml (90 µM), 2.5 mg/ml (45 µM) and 1 […]
mg/ml (18 µM). The protein was measured alone and in the presence of ten times molar excess of UDP, UDP-GalNAc, UDP-EA2 peptide, MUC5AC-13, UDP-MUC5AC-13, MUC5AC, and UDP-MUC5AC. The second set of experiments was carried out with the protein concentration fixed at 5 mg/ml, and increasing concentrations of UDP (450 µM, 900 µM, 1.8 mM, 4.5 mM and 9 mM). The concentration of MUC5AC-13 was also changed as follows: 1 mM, 5 mM and 7.5 […]
Synchrotron SAXS measurements were performed at the European Molecular
Biology Laboratory (EMBL) on the storage ring PETRA-III (DESY-Hamburg) on the P12 beamline equipped with a robotic sample changer and a PILATUS-2M. The sample-detector distance was 3.1 m. The scattering intensity, I(s), was recorded at 10 °C in a momentum transfer range of 0.007<s<0.444 Å -1, where s = (4πsinθ )/λ , 2θ is the scattering angle, and λ = 1.24 Å is the X-ray wavelength. Twenty consecutive 0.05 second measurements were performed for protein samples and buffers to monitor for radiation damage that were subsequently averaged (no systematic radiation effects were observed). Buffer scattering profiles were subtracted from the sample ones using standard procedures 8. The values of the forward scattering, I(0), and radii of gyration, Rg, were calculated from the experimental SAXS patterns using Guinier’s approximation (Supplementary Fig. 4 and 5), I(s) = I(0)exp(-s2Rg2/3), which is valid in the range sRg < 1.3.
Structural analysis of the SAXS data was performed using the Ensemble Optimization Method (EOM)9. A pool of 10,000 monomeric structures of GalNac-T2 was constructed with the program RanCh9 by connecting three-dimensional structures of the catalytic and the lectin domains, extracted from the crystallographic structure 2FFU, with a flexible linker of 12 residues with random coil conformations. To […]
properly describe the data, these monomeric ensembles were enriched with 100 equivalent curves corresponding to one dimeric arrangement. As we tested three dimers, we built three different ensembles with the same 10,000 monomeric conformations and 100 copies of each one of the dimers. The three different dimers used for SAXS are shown in Supplementary Fig. 3c and correspond to three different crystal structures obtained under different conditions.
The scattering profiles of all members of the pool were computed with the program CRYSOL using standard parameters10. The pool of structures/profiles was submitted to the genetic algorithm (GA) with the aim to select a subensemble of 50 structures/curves with the capacity to collectively describe the experimental SAXS […]
was repeated 200 times starting from different randomly selected subensembles, and the resulting solutions were analysed together. The same pool was used to describe all the measured data. Results were quantitatively analysed by displaying the Rg distributions of the selected ensembles and the relative population of monomeric and dimeric species.
Three different dimeric arrangements were introduced individually in the pool. In all three cases the dimers display similar contacts between the lectin domains and the lectin domain of one monomer with the catalytic domain of a second monomer (Supplementary Fig. 3c). We can distinguish the crystallographic dimers by the buried area parameter inferred from the PISA server. The dimers present in the crystal structure of GalNAc-T2-UDP complex (PDB entry 2FFV) are the most compact ones […]

GalNAc-T2 [3] = target: T1, GalNAc-T2; assay: Tryptophan fluorescence spectroscopy, dissociation constants of GalNAc-T2 against peptides; assay type: binding; details: Kd in the absence of UDP/Mn+2 compared with presence of the nucleotide
Procedure: All experiments were carried out in a Cary Eclipse spectrofluorometer (Varian) at 25 °C with GalNAc-T2 at 1 μM, and concentrations of peptides varying from 1 to 500 μM in 25 mM Tris, 150 mM NaCl, pH 7.5. The same experiments were also performed in the same buffer but containing 400 μM UDP and 1 mM MnCl2. Fluorescence emission spectra were recorded in the 300–400 nm range with an excitation wavelength of 280 nm, with slit width of 5 nm. The data analysis was performed in Prism (GraphPad software) considering a model with a single binding site (see equation (1), where F0 is the intrinsic fluorescence of the enzyme in the absence of quencher (Q), F1 is the observed fluorescence at a given quencher concentration, fa is the fractional degree of fluorescence and Kd is the dissociation constant.

GalNAc-T2 [4] = target: T1, GalNAc-T2; assay: Time-lapse AFM of single GalNAc-T2 molecules with ligands; details: in the presence of Mn+2; GalNAc-T2 2.0 nM on mica, UDP, UDP-GalNAc and MnCl2 20.0 nM, PBS pH 7.4, 20 °C
Procedure: AFM measurements were performed using a MultiMode 8 AFM system (Bruker). […] Additional details are in Supplementary Methods. […]
simulations were performed with the acceptor amino acid – UDPGalNAc distance and the RMSD of the Cα peptide carbon atoms as collective variables.
The values of the height and width of the Gaussian-like biasing potential were selected as 1.0 kcal·mol -1 and 0.25 Å, respectively. A temperature window of ΔT = 25000 K for the well-tempered algorithm was used together with a deposition time of 1 ps. The simulation was continued until the system completely explored the free energy landscape several times which, in terms of the simulation time, corresponds to approximately 100 ns for each metadynamics run.
Atomic Force Microscopy Imaging
In Tapping Mode image operation the cantilever driven by a piezoelectric actuator vibrates near its resonance frequency. Upon approaching the sample, the tip briefly touches the surface at the bottom of each swing, resulting in a decrease in oscillation amplitude. […]
AFM scanning requires the sample be immobilized on a nanoflat surface not to be swept away. […] The concentration of the protein incubated on the mica sheets was suitable to get isolated features that could be analyzed individually. […]
GalNAc-T2 presents a net positive charge at the working pH conditions due to its theoretical isoelectric point of 8.3. The immobilization of enzymes on mica was previously evaluated observing clearly they preserve the enzymatic activity5.
To determine how the ligands affect the conformational dynamics of GalNAc-T2, the enzyme was also incubated with ligands for 10 min under mild stirring at room temperature. […] AFM images were further analyzed by using the WSxM software6. […] At least 10 images of 10 different areas of 500 nm2 were analyzed for every sample and environment. Furthermore, each feature or associate was analyzed in detail with the zoom function of the WSxM program, performed without losing image information and or the discarding of artifacts. […]

[5] = ligand molar ratio GalNAc-T2:ligand 1:10

T1 sequence (Q10471 75-571 limits assumed): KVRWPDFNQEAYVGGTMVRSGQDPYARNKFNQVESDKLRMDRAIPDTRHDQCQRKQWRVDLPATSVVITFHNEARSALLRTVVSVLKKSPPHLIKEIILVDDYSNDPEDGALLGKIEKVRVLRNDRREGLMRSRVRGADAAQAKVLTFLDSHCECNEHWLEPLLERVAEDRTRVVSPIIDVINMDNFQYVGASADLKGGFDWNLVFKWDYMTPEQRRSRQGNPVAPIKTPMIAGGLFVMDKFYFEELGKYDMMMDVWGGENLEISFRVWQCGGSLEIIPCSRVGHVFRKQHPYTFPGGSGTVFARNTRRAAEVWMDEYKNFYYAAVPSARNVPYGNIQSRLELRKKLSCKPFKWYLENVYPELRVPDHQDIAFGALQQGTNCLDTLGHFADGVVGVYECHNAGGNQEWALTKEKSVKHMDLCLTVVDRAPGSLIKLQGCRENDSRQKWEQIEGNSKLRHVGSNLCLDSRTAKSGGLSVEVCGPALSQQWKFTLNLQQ

Rg (Guinier) (GalNAc-T2 [2]; peptide + UDP (1:10)) [Å] | Rg from p(r) (GNOM) (GalNAc-T2 [2]; peptide + UDP (1:10)) [Å] | Dmax (GalNAc-T2 [2]; peptide + UDP (1:10)) [Å] | Kd in the absence vs presence of UDP/Mn+2 (GalNAc-T2 [3]) | SMILES | form of GalNAc-T2 bound in crystal (GalNAc-T2 [1]) | Rg from p(r) (GNOM) (GalNAc-T2 [2]; ligand molar ratio 1:10) [Å] | Dmax (GalNAc-T2 [2]; ligand molar ratio 1:10) [Å] | Rg (Guinier) (GalNAc-T2 [2]; [5]) [Å] | conformational states of GalNAc-T2 observed (GalNAc-T2 [4])
– | – | – | – | CC(=O)N[C@H]1[C@@H](O[C@H](C)[C@H](NC(=O)[C@@H](NC(=O)[C@H](CO)NC(=O)[C@@H](NC(=O)[C@@H](NC(=O)[C@@H]2CCCN2C(=O)[C@@H](NC(=O)[C@@H]2CCCN2C(=O)[C@H](CO)NC(=O)[C@@H]2CCCN2C(=O)[C@@H](NC(=O)[C@@H](NC(=O)CN)[C@@H](C)O)[C@@H](C)O[C@H]2O[C@H](CO)[C@H](O)[C@H](O)[C@H]2NC(C)=O)C(C)C)[C@@H](C)O)[C@@H](C)O)[C@@H](C)O)C(=O)N[C@@H](CO)C(=O)N[C@@H](C)C(N)=O)O[C@H](CO)[C@H](O)[C@@H]1O [MUC5AC-3-13] (H-GTT(αGalNAc)PSPVPTTSTT(αGalNAc)SA-NH2; N-terminus assumed) | bound to the inactive form of GalNAc-T2 | – | – | – | –
32.0±0.2 | 33.3 | 120 | fourfold better | CC(=O)NCC(=O)N[C@H](C(=O)N[C@H](C(=O)N1CCC[C@H]1C(=O)N[C@@H](CO)C(=O)N1CCC[C@H]1C(=O)N[C@H](C(=O)N1CCC[C@H]1C(=O)N[C@H](C(=O)N[C@H](C(=O)N[C@@H](CO)C(=O)N[C@H](C(=O)N[C@H](C(=O)N[C@@H](CO)C(=O)N[C@@H](C)C(N)=O)[C@@H](C)O)[C@@H](C)O)[C@@H](C)O)[C@@H](C)O)C(C)C)[C@@H](C)O)[C@@H](C)O [MUC5AC] (Ac-GTTPSPVPTTSTTSA-NH2; N-terminus assumed) | – | 33.4 | 120 | 32.3±0.3 | –
– | – | – | – | CC(=O)N[C@H]1[C@@H](OP(=O)(O)OP(=O)(O)OC[C@H]2O[C@@H](n3ccc(=O)[nH]c3=O)[C@H](O)[C@@H]2O)O[C@H](CO)[C@H](O)[C@@H]1O [UDP-GalNAc, uridine diphosphate N-acetylgalactosamine, reference compound] | – | 34.6 | 124 | 34.7±0.4 | either the very compact or the compact structure
